This passage reports mass density and refractive index results from the NIST ThermoML archive (doi:10.1016/j.jct.2016.06.010).

What is called mass density is the mass of a sample divided by its volume. A word on the refractive index: it is the speed of light in vacuum divided by its phase velocity in the sample.

The conditions of data set [1]: 293.15 K; 101.33 kPa; Liquid; Vibrating tube method.
Data set [2] can be described thus: refractive index (Na D-line) (dimensionless). Conditions: 293.15 K; 101.33 kPa; Liquid; Standard Abbe refractometry.

Numbers after ± are expanded uncertainties.

Consider `CC12CCC(CC1)C(C)(C)O2` [1,3,3-trimethyl-2-oxabicyclo[2.2.2]octane], for which the mass density in data set [1] is on record as 924.84 ± 2 kg/m3. The refractive index in data set [2] turned out to be 1.45756 ± 0.0011.
On the same counts, the results for `CCCCO` [butan-1-ol] are 809.75 ± 2 kg/m3 and 1.39911 ± 0.001.
On the same counts, the results for `CCO` [ethanol] are 789.38 ± 2 kg/m3 and 1.36134 ± 0.001.
The matching figures for `CO` [methanol]: 791.2 ± 2 kg/m3 and 1.32826 ± 0.001.
Regarding `CCCO` [propan-1-ol], the mass density in data set [1] came to 803.85 ± 2 kg/m3. Also, the refractive index in data set [2] was found to be 1.38461 ± 0.001.
